Our source for the IC50 values is ChEMBL document CHEMBL1130103, “Doxoform and Daunoform: anthracycline-formaldehyde conjugates toxic to resistant tumor cells” (J Med Chem, 1997).

Assay [1] deals with MCF7. Kind of assay: compound was tested in vitro for inhibition activity against a sensitive human breast carcinoma line cells. The format is functional, cell-based.
For assay [2], the system named is NCI/ADR-RES. Kind of assay: compound was tested in vitro for inhibition activity against doxorubicin resistant counterpart of human breast carcinoma line cells. Format: functional, cell-based.

Regarding `COc1cccc2c1C(=O)c1c(O)c3c(c(O)c1C2=O)C[C@@](O)(C(C)=O)C[C@@H]3OC1CC2C(OCN2CN2COC3C(C)OC(O[C@H]4C[C@](O)(C(C)=O)Cc5c(O)c6c(c(O)c54)C(=O)c4c(OC)cccc4C6=O)CC32)C(C)O1` (stereo partly drawn) [DAUNOFORM], the IC50 in assay [1] was 8 nM equiv l-1; in assay [2], 10 nM equiv l-1.

Take `COc1cccc2c1C(=O)c1c(O)c3c(c(O)c1C2=O)C[C@@](O)(C(=O)CO)C[C@@H]3O[C@H]1C[C@H](N)[C@H](O)[C@H](C)O1` [DOXORUBICIN]: the results for the IC50 in assay [1] and in assay [2] were 300 nM equiv l-1 and 10000 nM equiv l-1, respectively.

With `COc1cccc2c1C(=O)c1c(O)c3c(c(O)c1C2=O)C[C@@](O)(C(=O)CO)C[C@@H]3OC1CC2C(OCN2CN2COC3C(C)OC(O[C@H]4C[C@](O)(C(=O)CO)Cc5c(O)c6c(c(O)c54)C(=O)c4c(OC)cccc4C6=O)CC32)C(C)O1` (stereo partly drawn) [DOXOFORM], the IC50 was 2 nM equiv l-1 in assay [1] and 1 nM equiv l-1 in assay [2].

Consider `COc1cccc2c1C(=O)c1c(O)c3c(c(O)c1C2=O)C[C@@](O)(C(C)=O)C[C@@H]3O[C@H]1C[C@H](N)[C@H](O)[C@H](C)O1` [DAUNORUBICIN], for which the IC50 in assay [1] is listed as 60 nM equiv l-1; in assay [2] it was 2000 nM equiv l-1.
